According to patent US20070197509A1, “Compositions and methods for modulating gated ion channels” (PainCeptor Pharma Corporation, priority 2005, published 2007):
“Also recorded” adds a separate entry of the source. Read-outs that look alike come from different tables or passages of the source.

Molecular target: T1, hASIC1a (Homo sapiens, UniProt P78348)
T1 sequence (P78348 1-528): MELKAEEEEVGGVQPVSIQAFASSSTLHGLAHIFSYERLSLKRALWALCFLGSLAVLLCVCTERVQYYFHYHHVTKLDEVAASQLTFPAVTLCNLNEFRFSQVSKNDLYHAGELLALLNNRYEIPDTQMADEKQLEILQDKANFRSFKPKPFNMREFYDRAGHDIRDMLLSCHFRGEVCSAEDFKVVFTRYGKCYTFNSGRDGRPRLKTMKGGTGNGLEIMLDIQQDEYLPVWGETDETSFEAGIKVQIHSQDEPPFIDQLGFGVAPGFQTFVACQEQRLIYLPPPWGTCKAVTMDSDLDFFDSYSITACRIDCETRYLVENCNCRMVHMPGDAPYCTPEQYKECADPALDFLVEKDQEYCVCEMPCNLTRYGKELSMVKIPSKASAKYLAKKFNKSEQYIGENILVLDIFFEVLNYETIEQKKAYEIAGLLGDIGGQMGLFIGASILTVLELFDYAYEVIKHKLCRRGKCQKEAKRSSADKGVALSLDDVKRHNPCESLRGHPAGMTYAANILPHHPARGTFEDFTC
Test: Whole-cell patch clamp of acid-induced currents in cells transfected with hASIC1a
Format: cell-based
Set-up: expressed in transfected cells
Settings: for effect on acid-induced hASIC1a inward current (FIGS. 2A, 2B, 3C): whole-cell patch clamp, dose-inhibition curves
Description: Another example of an in vitro assessment method consists of using mammalian heterologous expression systems, which are known to those skilled in the art, and include a variety of mammalian cell lines such as COS, HEK, e.g., HEK293 and/or CHO, cells. Cell lines are transfected with gated ion channel(s) and used to perform electrophysiology as follows:
All experiments are performed at room temperature (20-25° C.) in voltage clamp using conventional whole cell patch clamp methods (Neher, E., et al. (1978) Pfluegers Arch 375:219-228).
The amplifier used is the EPC-9 (HEKA-electronics, Lambrect, Germany) run by a Macintosh G3 computer via an ITC-16 interface. Experimental conditions are set with the Pulse-software accompanying the amplifier. Data is low pass filtered and sampled directly to hard-disk at a rate of 3 times the cut-off frequency.
Pipettes are pulled from borosilicate glass using a horizontal electrode puller (Zeitz-lnstrumente, Augsburg, Germany). The pipette resistances are 2-3 MOhms in the salt solutions used in these experiments. The pipette electrode is a chloridized silver wire, and the reference is a silver chloride pellet electrode (In Vivo Metric, Healdsburg, USA) fixed to the experimental chamber. The electrodes are zeroed with the open pipette in the bath just prior to sealing.
Coverslips with the cells are transferred to a 15 μl experimental chamber mounted on the stage of an inverted microscope (IMT-2, Olympus) supplied with Nomarski optics. Cells are continuously superfused with extracellular saline at a rate of 2.5 ml/min. After giga-seal formation, the whole cell configuration is attained by suction. The cells are held at a holding voltage of −60 mV and at the start of each experiment the current is continuously measured for 45 s to ensure a stable baseline. Solutions of low pH (<7) are delivered to the chamber through a custom-made gravity-driven flowpipe, the tip of which is placed approximately 50 μm from the cell. Application is triggered when the tubing connected to the flowpipe is compressed by a valve controlled by the Pulse-software. Initially, low pH (in general, pH 6.5) is applied for 5 s every 60 s. The sample interval during application is 550 μs. After stable responses are obtained, the extracellular saline as well as the low-pH solution are switched to solutions containing the compound to be tested. The compound is present until responses of repeatable amplitude are achieved. Current amplitudes are measured at the peak of the responses, and effect of the compounds is calculated as the amplitude at compound equilibrium divided by the amplitude of the current evoked by the pulse just before the compound was included.
The following salt solutions are used: extracellular solution (mM): NaCl (140), KCl (4), CaCl2 (2), MgCl2 (4), HEPES (10, pH 7.4); intracellular solution (mM): KCl (120), KOH (31), MgCl2 (1.785), EGTA (10), HEPES (10, pH 7.2). In general, compounds for testing are dissolved in 50% DMSO at 500 fold the highest concentration used.
CHO cells were transfected with hASIC1a and used to perform full dose-inhibition curves with Compound B, and Compound R. Results are expressed as a fraction of the control peak current obtained in the absence of the test substance.

[1] = Table H, read-out: IC50 (μM) Patch Clamp (h1a)

Row | Structure (SMILES) | IC50 [1] [µM] | IC50 (patch clamp (PC), Tables A-F, h1a printed in some cells only, read-out: Biological Data (IC50 uM) h1a (PC)) [µM] | selectivity hASIC1a versus hASIC3 (patch clamp, CHO cells, FIG. 3) | reversibility of the effect on hASIC1a current (washout of the compound after 1 μM) | effect on acid-induced hASIC1a inward current (FIGS. 2A, 2B, 3C)
1 | Cc1cc(OC2CCN(Cc3ccccc3)CC2)c2ccccc2n1 [Compound R, 4-(1-benzyl-piperidin-4-yloxy)-2-methyl-quinoline] | 3.8 | 2 to 10 | selective against specific ASIC subunits; also recorded: selective for hASIC1a over hASIC3 | fully reversed upon washout | dose-dependently reduce hASIC1a activity; also recorded: reduced the hASIC1a pH-evoked response in a dose-dependent manner; also recorded: dose-dependent reduction
2 | COc1ccc(C(=O)CN2CCN(c3cc(C)nc4ccccc34)CC2)cc1 [Compound A, 1-(4-methoxy-phenyl)-2-[4-(2-methyl-quinolin-4-yl)-piperazin-1-yl]-ethanone] | > 10 |  |  |  | 
3 | Fc1cccc2c(OC3CCN(Cc4ccccc4)CC3)cc(C(F)(F)F)nc12 [Compound B, 4-(1-benzyl-piperidin-4-yloxy)-8-fluoro-2-trifluoromethyl-quinoline] |  |  |  |  | dose-dependently reduce hASIC1a activity; also recorded: dose-dependent reduction
